In the NIST ThermoML archive (doi:10.1016/j.jct.2014.05.015):

Experiment: mn = molality of the nth substance listed, in mol/kg
Settings: 100 kPa, Liquid; for speed of sound: Frequency=3 MHz, Sing-around technique in a fixed-path interferometer; for mass density: Vibrating tube method

C[N+](C)(C)CC(=O)O.[Cl-] [betaine hydrochloride] + O
Settings | mass density, 293.15 K [kg/m3] | mass density, 298.15 K [kg/m3] | mass density, 303.15 K [kg/m3] | mass density, 308.15 K [kg/m3] | mass density, 313.15 K [kg/m3] | speed of sound, 293.15 K [m/s] | speed of sound, 298.15 K [m/s] | speed of sound, 303.15 K [m/s] | speed of sound, 308.15 K [m/s] | speed of sound, 313.15 K [m/s]
m1 = 0.00988 | 998.597 | 997.445 | 996.042 | 994.425 | 992.605 | 1483.8 | 1497.7 | 1510 | 1520.7 | 1529.8
m1 = 0.02034 | 998.988 | 997.829 | 996.428 | 994.806 | 992.98 | 1484.8 | 1498.7 | 1511 | 1521.7 | 1530.7
m1 = 0.03199 | 999.418 | 998.253 | 996.847 | 995.225 | 993.389 | 1486 | 1499.8 | 1512.1 | 1522.8 | 1531.8
m1 = 0.03929 | 999.672 | 998.509 | 997.099 | 995.477 | 993.638 | 1486.6 | 1500.5 | 1512.8 | 1523.5 | 1532.4
m1 = 0.04992 | 1000.05 | 998.883 | 997.471 | 995.846 | 993.998 | 1487.6 | 1501.3 | 1513.6 | 1524.4 | 1533.3
m1 = 0.05925 | 1000.37 | 999.196 | 997.795 | 996.165 | 994.316 | 1488.4 | 1502.3 | 1514.2 | 1525.1 | 1534.1
